This is an account of results in ChEMBL document CHEMBL1201862, “PubChem BioAssay data set” (2004).

Active and inactive are the calls of the source.

For orientation: EC50 means the concentration that produces a half-maximal response. Broadly, the IC50 is the midpoint of a concentration-inhibition curve. As a reminder, the AC50 is the midpoint of the concentration-response curve, whichever way the signal moves. As usually defined, the CC50 is the concentration at which the toxic effect on the cells reaches its halfway point.

Experiment [1] concerns the target T1, Protein RecA (Mycobacterium tuberculosis, UniProt P9WHJ3).
T1 sequence (P9WHJ3 whole entry): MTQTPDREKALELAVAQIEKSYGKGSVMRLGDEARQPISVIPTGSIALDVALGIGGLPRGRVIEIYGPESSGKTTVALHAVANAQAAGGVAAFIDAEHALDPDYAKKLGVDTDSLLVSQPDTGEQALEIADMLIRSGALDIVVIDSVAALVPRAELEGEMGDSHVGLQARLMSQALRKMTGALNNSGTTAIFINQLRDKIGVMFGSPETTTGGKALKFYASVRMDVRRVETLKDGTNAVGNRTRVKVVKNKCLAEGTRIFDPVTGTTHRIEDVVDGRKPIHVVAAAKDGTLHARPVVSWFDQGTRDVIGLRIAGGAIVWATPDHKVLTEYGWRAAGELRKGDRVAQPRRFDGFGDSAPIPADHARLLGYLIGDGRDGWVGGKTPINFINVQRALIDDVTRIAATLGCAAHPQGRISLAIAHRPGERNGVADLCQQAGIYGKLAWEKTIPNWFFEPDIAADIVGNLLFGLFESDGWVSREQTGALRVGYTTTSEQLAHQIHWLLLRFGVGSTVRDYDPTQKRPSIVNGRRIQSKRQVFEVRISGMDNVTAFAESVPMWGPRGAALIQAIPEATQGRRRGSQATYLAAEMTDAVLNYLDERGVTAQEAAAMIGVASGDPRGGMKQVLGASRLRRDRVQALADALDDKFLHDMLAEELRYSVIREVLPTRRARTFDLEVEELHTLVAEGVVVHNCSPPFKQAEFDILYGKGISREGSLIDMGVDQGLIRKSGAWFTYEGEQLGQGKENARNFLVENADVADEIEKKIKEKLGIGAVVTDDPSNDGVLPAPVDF
As to the kind of experiment: Fluorescence Cell-Free Homogeneous Dose Retest to Identify Inhibitors of RecA-Intein Splicing Activity. [Related pubchem assays (depositor defined):AID2097, AID2223, AID489010, AID492950]. Type of experiment: functional.

For experiment [2], the target named is Genome polyprotein (dengue virus type 2, UniProt P29990). As to the kind of experiment: Dengue-2 NS5 methyltransferase inhibitors, primary screen, biochemical, confirmation dose response (AID 588689). Format: functional.
Sequence of Genome polyprotein (P29990 2492-3391 limits assumed): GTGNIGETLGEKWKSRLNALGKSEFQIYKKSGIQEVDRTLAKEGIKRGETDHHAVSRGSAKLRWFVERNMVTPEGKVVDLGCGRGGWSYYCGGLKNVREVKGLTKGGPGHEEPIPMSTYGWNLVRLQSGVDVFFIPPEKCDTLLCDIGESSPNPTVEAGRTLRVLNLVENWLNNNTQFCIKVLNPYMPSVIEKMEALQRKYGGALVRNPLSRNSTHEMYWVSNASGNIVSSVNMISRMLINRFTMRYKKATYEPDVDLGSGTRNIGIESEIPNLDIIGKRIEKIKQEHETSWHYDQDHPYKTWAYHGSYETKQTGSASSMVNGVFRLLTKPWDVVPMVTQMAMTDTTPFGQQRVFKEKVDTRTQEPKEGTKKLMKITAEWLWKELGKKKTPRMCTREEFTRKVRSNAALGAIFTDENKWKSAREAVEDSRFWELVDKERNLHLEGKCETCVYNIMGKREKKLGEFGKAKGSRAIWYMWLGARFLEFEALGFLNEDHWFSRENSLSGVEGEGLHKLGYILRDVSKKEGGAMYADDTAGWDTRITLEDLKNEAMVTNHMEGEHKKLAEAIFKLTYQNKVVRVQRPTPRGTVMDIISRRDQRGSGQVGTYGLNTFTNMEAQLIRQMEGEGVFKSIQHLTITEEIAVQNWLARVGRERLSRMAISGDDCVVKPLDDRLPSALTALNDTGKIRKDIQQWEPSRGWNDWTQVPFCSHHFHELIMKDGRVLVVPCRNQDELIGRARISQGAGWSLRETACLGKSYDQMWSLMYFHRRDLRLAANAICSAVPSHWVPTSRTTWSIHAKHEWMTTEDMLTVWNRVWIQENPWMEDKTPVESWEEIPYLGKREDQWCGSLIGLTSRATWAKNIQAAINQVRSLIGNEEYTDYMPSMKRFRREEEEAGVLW
Experiment [3] addresses T2, Replicative DNA helicase DnaB (Mycobacterium tuberculosis, UniProt P9WMR3).
T2 sequence (P9WMR3 whole entry): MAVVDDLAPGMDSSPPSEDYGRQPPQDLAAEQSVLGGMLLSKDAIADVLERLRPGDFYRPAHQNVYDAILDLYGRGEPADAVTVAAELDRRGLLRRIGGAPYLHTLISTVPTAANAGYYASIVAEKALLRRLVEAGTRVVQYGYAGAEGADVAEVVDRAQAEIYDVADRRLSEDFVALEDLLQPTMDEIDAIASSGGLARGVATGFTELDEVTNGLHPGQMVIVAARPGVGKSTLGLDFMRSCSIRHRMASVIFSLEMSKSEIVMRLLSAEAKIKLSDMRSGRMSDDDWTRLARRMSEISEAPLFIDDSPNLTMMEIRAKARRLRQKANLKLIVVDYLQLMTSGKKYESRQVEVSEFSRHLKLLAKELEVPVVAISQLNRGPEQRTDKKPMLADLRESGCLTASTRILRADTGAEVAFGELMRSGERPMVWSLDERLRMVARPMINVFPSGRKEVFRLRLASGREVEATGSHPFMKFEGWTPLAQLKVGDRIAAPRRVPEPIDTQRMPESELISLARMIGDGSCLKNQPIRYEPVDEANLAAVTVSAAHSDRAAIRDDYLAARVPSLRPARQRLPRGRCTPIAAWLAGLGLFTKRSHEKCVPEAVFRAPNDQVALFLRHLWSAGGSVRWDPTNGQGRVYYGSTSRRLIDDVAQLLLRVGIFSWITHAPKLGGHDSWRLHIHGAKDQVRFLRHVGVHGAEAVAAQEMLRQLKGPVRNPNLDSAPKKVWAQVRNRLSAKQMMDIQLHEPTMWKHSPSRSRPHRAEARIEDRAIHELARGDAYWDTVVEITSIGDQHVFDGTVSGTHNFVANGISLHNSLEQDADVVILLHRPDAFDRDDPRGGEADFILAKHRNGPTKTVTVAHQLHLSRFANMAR
As to the kind of experiment: DnaB intein splicing inhibitors, dose response, biochemical, cell-free fluorescence (AID 449749). Type of experiment: functional.

Experiment [4] relates to Vero. As to the kind of experiment: Vero cell cytotoxicity, cytotoxicity control for flavivirus capping enzyme inhibitors (AID 588742). Type of experiment: functional. To be noted: Chlorocebus sabaeus.
Experiment [5] relates to HEK293. Put plainly: inhibitors of LMP1-driven NF-kB reporter, dose response, cell-based, HEK293, luciferase, cherry-pick (AID 588343). Type of experiment: functional. Conditions: Homo sapiens.
For experiment [6], the target named is Latent membrane protein 1 (Human herpesvirus 4 (strain B95-8), UniProt P03230). Put plainly: TES1-eGFP NF-kB reporter inhibition versus Tet-On dsRED, dose response, selectivity assay for LMP1 NF-kB inhibitor project, imaging, HEK293T, dual-color eGFP/dsRED, cherry-picks (AID 588398). Format: functional, cell-based.
Sequence of Latent membrane protein 1 (P03230 whole entry): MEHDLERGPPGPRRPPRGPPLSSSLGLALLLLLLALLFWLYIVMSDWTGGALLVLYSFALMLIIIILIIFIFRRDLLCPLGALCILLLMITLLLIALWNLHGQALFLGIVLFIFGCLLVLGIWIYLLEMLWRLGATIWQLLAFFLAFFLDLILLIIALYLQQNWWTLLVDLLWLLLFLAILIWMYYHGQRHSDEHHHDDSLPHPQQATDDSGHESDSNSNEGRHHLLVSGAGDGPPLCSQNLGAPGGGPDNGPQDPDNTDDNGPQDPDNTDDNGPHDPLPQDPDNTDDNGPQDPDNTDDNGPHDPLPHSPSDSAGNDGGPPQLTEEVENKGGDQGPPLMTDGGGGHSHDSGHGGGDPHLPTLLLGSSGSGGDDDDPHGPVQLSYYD
Experiment [7] concerns the target T3, Long-chain-fatty-acid--AMP ligase FadD28 (Mycobacterium tuberculosis, UniProt P9WQ59).
T3 sequence (P9WQ59 whole entry): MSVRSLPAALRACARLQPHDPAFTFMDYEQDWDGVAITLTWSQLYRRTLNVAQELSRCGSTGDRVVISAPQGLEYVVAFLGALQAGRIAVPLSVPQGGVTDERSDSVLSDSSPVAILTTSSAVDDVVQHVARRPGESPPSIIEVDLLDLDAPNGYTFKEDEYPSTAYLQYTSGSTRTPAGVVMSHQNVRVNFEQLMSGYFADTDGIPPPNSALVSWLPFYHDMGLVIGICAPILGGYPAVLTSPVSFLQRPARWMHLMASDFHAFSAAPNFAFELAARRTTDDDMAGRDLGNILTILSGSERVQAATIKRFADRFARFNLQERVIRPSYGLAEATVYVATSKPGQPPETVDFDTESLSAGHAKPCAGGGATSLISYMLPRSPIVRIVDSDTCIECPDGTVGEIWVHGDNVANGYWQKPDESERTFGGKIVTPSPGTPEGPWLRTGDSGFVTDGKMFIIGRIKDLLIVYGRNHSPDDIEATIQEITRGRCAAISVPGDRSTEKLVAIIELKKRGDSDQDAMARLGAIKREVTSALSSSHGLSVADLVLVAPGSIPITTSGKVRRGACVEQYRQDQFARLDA
As to the kind of experiment: Fluorescence polarization aasay to screen for inhibitors that compete for the binding of FadD28 to a bisubstrate Measured in Biochemical System Using Plate Reader - 2147-01_Inhibitor_Dose_CherryPick_Activity. Format: functional, Mycobacterium tuberculosis H37Rv.

Experiment [8] concerns the target Paired box protein Pax-8 (Homo sapiens, UniProt Q06710). As to the kind of experiment: inhibitors of PAX8-driven TPO luciferase reporter, dose response, RMG-I cells, cherry-pick (AID 687027).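 Also: luciferase reporter driven by Pax8 target thyroperoxidase promoter measured by SteadyGlo luminescence.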 Type of experiment: functional, cell-based. For orientation: In a reporter assay the amount or activity of a reporter protein is the signal.
The target in experiment [9] is Heat shock protein HSP 90-alpha (Homo sapiens, UniProt P07900). Type of experiment: functional, organism-based.
The nature of experiment [10]: cells. Type of experiment: functional.
Experiment [11] in a line: THP-1 cell cytotoxicity, dose response, cytotoxicity control for non-replicating M. tuberculosis project (AID 489025). Type of experiment: functional.
Experiment [12] can be described thus: Fluorescence-based cell-based high throughput dose response assay for inhibitors of the interaction of nucleotide-binding oligomerization domain containing 2 (NOD2) and the receptor-interacting serine-threonine kinase 2 (RIPK2). Format: functional. Conditions: Homo sapiens.
Experiment [13] deals with T4, Heat shock factor protein 1 (Mus musculus, UniProt P38532).
T4 sequence (P38532 whole entry): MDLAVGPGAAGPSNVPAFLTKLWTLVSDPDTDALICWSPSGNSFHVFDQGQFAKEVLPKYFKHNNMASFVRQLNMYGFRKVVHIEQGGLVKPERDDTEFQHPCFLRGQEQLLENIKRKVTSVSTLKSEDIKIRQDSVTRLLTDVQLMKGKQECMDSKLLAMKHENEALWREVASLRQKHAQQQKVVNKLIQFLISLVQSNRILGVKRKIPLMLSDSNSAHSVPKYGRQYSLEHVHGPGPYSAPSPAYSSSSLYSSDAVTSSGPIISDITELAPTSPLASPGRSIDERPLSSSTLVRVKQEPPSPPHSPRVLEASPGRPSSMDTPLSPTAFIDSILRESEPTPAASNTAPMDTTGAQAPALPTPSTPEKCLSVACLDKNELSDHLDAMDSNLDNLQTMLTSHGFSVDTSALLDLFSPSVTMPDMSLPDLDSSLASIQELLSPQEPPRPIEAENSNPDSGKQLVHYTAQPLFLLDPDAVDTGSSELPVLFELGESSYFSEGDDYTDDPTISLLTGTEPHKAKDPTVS
Put plainly: inhibition of MG132-induced HSE-luciferase signal, confirmation, cell-based, NIH3T3, luminescence, dose retest (AID 2382).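 Also: NIH3T3 fibroblasts with HSF1-driven luciferase reporter stressed by proteasome inhibitor MG132; luminescence from HSF1-driven luciferase expression after 8 hours of MG132 stress.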 Type of experiment: functional.

Experiment [14] in a line: Vero E6 cell cytotoxicity, dose response, cytotoxicity control for non-replicating M. tuberculosis project, secondary assay (AID 492998). Format: functional, VeroE6. Conditions: Vero C1008.
Experiment [15] deals with Beta-galactosidase (Escherichia coli, UniProt Q8VNN2). Put plainly: PubChem AID 485352. Format: functional.
Sequence of Beta-galactosidase (Q8VNN2 whole entry): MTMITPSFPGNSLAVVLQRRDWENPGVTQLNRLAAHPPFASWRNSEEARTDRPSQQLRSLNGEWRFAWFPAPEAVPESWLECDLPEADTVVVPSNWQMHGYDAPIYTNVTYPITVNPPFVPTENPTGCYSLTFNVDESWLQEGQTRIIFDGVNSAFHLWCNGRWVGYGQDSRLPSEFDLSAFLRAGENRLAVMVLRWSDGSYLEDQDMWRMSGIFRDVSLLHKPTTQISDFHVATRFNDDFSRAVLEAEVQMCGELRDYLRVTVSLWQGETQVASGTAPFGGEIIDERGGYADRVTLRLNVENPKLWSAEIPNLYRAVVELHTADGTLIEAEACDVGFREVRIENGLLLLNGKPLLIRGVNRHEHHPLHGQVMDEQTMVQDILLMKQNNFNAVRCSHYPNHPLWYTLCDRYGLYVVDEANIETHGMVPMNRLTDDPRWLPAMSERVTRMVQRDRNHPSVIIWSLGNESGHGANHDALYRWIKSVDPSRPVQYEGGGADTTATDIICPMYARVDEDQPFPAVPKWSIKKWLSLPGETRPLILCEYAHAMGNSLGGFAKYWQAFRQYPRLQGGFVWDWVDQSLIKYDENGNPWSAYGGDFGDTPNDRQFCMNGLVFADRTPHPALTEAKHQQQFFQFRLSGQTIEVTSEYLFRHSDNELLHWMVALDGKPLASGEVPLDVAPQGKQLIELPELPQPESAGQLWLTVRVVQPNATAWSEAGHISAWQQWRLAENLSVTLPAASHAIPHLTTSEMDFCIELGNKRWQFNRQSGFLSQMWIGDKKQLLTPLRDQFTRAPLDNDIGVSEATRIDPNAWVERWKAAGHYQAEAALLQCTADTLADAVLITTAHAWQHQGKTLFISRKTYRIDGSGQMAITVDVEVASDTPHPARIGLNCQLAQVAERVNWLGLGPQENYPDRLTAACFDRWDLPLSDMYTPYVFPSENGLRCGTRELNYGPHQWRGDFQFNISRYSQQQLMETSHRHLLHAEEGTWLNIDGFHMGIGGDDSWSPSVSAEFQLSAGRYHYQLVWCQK
Experiment [16] in a line: HepG2 cell cytotoxicity, dose response, cytotoxicity control for non-replicating M. tuberculosis project (AID 489018). To be noted: Mycobacterium tuberculosis. Type of experiment: functional.
Experiment [17] deals with INS1. As to the kind of experiment: beta cell apoptosis inhibitors, cytokine rescue, dose response, luminescence, retest (AID 449756).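 Also: cell death triggered by IL-1 beta plus TNF-alpha plus IFN-gamma mixture; protective hits raise ATP signal compared with cytokine alone wells.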 Type of experiment: functional, cell-based. To be noted: Rattus norvegicus.
A short description of experiment [18]: non-specific cell cytotoxicity, dose response, cytotoxicity control for PAX8 inhibitor project, plate reader, dry powder samples (AID 743021). Type of experiment: functional, cell-based.
Experiment [19] concerns CHO. Put plainly: cytotoxicity in TLR9-MyD88 CHO cells, dose response, cytotoxicity control for TLR9-MyD88 binding inhibitor project, cell-based, luminescence (AID 588339).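 Also: CHO cells stably coexpressing TLR9 and MyD88 fusions from primary screen; compound exposure lasted 48 hours before viability readout.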 Conditions: Cricetulus griseus. Type of experiment: functional, hamster.
The target in experiment [20] is Beta Lactamase (Pseudomonas aeruginosa, UniProt Q932Y6). As to the kind of experiment: beta-lactamase reporter inhibitor potency, dose response, artefact control for TLR9-MyD88 binding inhibitor project, BLA reporter cells, FRET fluorescence (AID 588341).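 Also: cell based assay in CHO-K1 cells stably expressing beta-lactamase.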 Format: cell-based.
Sequence of Beta Lactamase (Q932Y6 whole entry): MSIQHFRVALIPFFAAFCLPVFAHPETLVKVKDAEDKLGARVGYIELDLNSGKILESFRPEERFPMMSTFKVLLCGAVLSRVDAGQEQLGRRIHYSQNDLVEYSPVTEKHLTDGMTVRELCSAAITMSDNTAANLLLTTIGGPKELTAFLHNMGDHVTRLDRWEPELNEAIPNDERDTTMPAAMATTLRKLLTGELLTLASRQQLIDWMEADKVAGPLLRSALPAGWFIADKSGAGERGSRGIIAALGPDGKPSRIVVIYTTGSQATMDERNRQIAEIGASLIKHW
Experiment [21] deals with Type-1 angiotensin II receptor (Homo sapiens, UniProt P30556). Put plainly: AT1 receptor antagonists, dose response, selectivity assay for APJ receptor antagonist project, cell-based, uHTS hits (AID 463214).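 Also: antagonist potency against angiotensin II stimulated AT1 response.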 Format: functional.
Sequence of Type-1 angiotensin II receptor (P30556 whole entry): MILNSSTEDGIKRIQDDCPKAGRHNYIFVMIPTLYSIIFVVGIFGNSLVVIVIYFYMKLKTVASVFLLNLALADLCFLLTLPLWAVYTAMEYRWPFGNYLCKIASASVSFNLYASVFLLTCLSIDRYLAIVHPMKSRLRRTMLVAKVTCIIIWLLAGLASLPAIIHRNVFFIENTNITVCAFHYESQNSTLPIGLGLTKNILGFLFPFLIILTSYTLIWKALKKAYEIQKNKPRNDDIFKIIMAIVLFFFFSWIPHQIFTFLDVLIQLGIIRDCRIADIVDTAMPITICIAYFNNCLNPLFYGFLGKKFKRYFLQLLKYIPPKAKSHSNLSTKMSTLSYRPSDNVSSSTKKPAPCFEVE

Sequence of Paired box protein Pax-8 (Q06710 whole entry): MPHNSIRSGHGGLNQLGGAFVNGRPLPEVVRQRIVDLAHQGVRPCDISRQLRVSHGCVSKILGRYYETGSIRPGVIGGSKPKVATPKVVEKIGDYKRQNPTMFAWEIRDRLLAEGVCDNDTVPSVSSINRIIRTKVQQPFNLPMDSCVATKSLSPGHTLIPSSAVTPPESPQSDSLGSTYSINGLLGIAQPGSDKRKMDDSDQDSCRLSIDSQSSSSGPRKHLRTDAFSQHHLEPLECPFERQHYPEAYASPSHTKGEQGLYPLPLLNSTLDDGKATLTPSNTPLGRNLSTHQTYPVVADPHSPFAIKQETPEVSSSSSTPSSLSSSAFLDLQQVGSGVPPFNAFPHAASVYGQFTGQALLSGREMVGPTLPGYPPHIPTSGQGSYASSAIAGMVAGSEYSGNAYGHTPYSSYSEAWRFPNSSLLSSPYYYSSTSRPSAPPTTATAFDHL

In the case of `CCc1ccc(/C=C/C(=O)C2C(=O)c3ccccc3C2=O)cc1`, the EC50 in [1] was 22.7 µM (active). Moreover, in experiment [2], the IC50 was 62.8 µM (active). For the same molecule, the AC50 in [3] was 51.1 µM (active); in [5], 4.59 µM (active); in experiment [6] it was 27.4 µM (active); in experiment [7], 80.4 µM (active). For the same molecule, the half-maximal cytotoxic concentration (CC50) in [4] is 34.7 µM (active).
Consider `O=C(C#Cc1ccccc1)c1ccco1`, for which the AC50 in [8] was 9.61 µM (active); in experiment [9] it was 3.05 µM (active); in experiment [17] it was 6.11 µM (active); in experiment [18], 23.7 µM (active). Further, the IC50 was 1.32 µM (active) in [10]; 2.25 µM (active) in experiment [12]; 1.82 µM (active) in [19]; > 49.8 µM (inactive) in experiment [20]; 8.43 µM (active) in [21]. Further, the values for the CC50 in experiment [11], in experiment [14] and in experiment [16] were 11 µM (active), 7.89 µM (active) and 9.8 µM (active), respectively. Also, the 50% effective concentration (EC50) in experiment [13] is 6.57 µM (active); in [15], > 40 µM (inactive).
